Earlier results, collected in patent US7286970B2, “Computational model, method, and system for kinetically-tailoring multi-drug chemotherapy for individuals” (The Regents of the University of California, priority 2002, dated 2007).
Marks after values point to notes of the source that are not given here.

Settings: for Plasma Half-life: in vivo

SMILES | half-life | Plasma Half-life
O=c1[nH]cc(F)c(=O)[nH]1 [5-Fluorouracil, 5-fluorouracil] | about 15 min | 
CC/C(=C(\c1ccccc1)c1ccc(OCCN(C)C)cc1)c1ccccc1 [Tamoxifen, tamoxifen] |  | 10^e h
O=P1(N(CCCl)CCCl)NCCCO1 (centres unmarked) [Cyclophosphamide, cyclophosphamide] |  | 4^d h

Second part, the molecule after the results:

half-life | Plasma Half-life | SMILES
 | 8^d h | CN(Cc1cnc2nc(N)nc(N)c2n1)c1ccc(C(=O)N[C@@H](CCC(=O)O)C(=O)O)cc1 [Methotrexate, methotrexate]
 | 25^d h | COc1cccc2c1C(=O)c1c(O)c3c(c(O)c1C2=O)C[C@@](O)(C(=O)CO)C[C@@H]3O[C@H]1C[C@H](N)[C@H](O)[C@H](C)O1 [Doxorubicin, doxorubicin]
